Patent US20240199728A1, “METHODS OF TREATING OBESITY, DIABETES, AND LIVER DYSFUNCTION” (REGENERON PHARMACEUTICALS, INC., priority 2022, published 2024)

Key:
Assay type in all cases: in vivo
[1] = test system: diet-induced obesity (DIO) mouse model; experiment: Final tissue/organ weights at end of study (day 28/29), DIO mice; settings: control group = 0.00 (FIG. 2B: % change vs. control), in %
Description: DIO mice that have been fed a high fat diet for at least 20 weeks were distributed into 4 different groups balanced by body fat content as determined by MRI and blood glucose. On day 0, all mice were implanted with osmotic pumps (Alzet, Cat #2004), in which the stainless steel flow moderators were replaced with PEEK tubing (DURECT Corporation, Cat #0002496) to allow for MRI measurements during the experiment. Pumps for groups 1 and 2 contained PBS, while pumps used for groups 3 and 4 contained Semaglutide (0.833 mg/mL for 7 ug/day infusion). […]
Body composition using MRI and fed blood glucose using a glucometer from tail bleeds were measured weekly in the morning. […] For the OGTT, mice were fasted for 4 hours, and baseline glucose was measured. Subsequently, 2 g/kg glucose was administered to the mice by oral gavage, and glucose was measured again after 30, 60, 90, and 120 minutes. On day 26, 6 hour fasted blood glucose was measured, and mice were bled for insulin assessment as described above. […] One lobe of the liver was fresh frozen to allow for triglyceride extraction and quantification using standard protocols. […] H&E, as well as smooth muscle actin (SMA), staining was performed, and slides were subjected to quantification using Halo software. […]

[2] = test system: obese adult male cyno non-human primate (NHP) with NASH; experiment: Obese NHP study of body weight, liver and metabolic effects of adding myostatin/activin A blockade onto GLP-1R agonism; settings: week 12
Procedure: An obese NHP study of the body weight, liver and metabolic effects of adding on myostatin/activin A blockade onto GLP-1R agonism was carried out. FIG. 10 sets forth the study and timeline for obese adult male cyno non-human primate (NHP) with NASH, stratified based on body weight and % body fat, n=10 per arm.
The treatment groups were: • vehicle; • Semaglutide; • Anti-Myostatin+anti-Activin A; • Semaglutide+anti-Myostatin; and • Semaglutide+anti-Myostatin+anti-Activin A. REGN1033 is an anti-Myostatin antibody, and REGN2477 is an anti-Activin A antibody. The GLP-1 agonist employed was Semaglutide. Semaglutide was administered at 10 μg/kg. Anti-Myostatin antibody was administered at 50 mg/kg. Anti-Activin A antibody was administered at 50 mg/kg.
Postmenopausal women received 10 mg/kg (anti-myostatin+anti-activin A) IV, Q2W. Thigh muscle volume was measured via MRI, and android fat mass was measured via iDXA, both over 30 weeks. Obese non-human primates received 50 mg/kg anti-myostatin+50 mg/kg anti-activin A (QW). Total lean mass was measured via iDXA, and total fat mass was measured via iDXA, both over 28 weeks. […]

[3] = test system: diet-induced obesity (DIO) mouse model; experiment: Body weight and body composition (MRI) over time in diet-induced obesity (DIO) mouse model; design: Body weight changes over time, Mean / Lean mass changes over time, Mean / Fat mass changes over time, Mean: unit not given here; settings: DIO mice; for Fat mass changes over time, Mean / Lean mass changes over time, Mean: MRI
Description: (§1) DIO mice that have been fed a high fat diet for at least 20 weeks were distributed into 4 different groups balanced by body fat content as determined by MRI and blood glucose. On day 0, all mice were implanted with osmotic pumps (Alzet, Cat #2004), in which the stainless steel flow moderators were replaced with PEEK tubing (DURECT Corporation, Cat #0002496) to allow for MRI measurements during the experiment. Pumps for groups 1 and 2 contained PBS, while pumps used for groups 3 and 4 contained Semaglutide (0.833 mg/mL for […] infusion). The next day (day 1), mice were injected with their respective antibodies: group 1 and group 3: Isotype control (at 20 mg/kg); group 2 and group 4: anti-GDF8 antibody (REGN1033) & anti-Activin A antibody (REGN2477) (at 10 mg/kg each). The antibody injections were repeated on days 4 and 7 and once weekly after that.
(§2) Body composition using MRI and fed blood glucose using a glucometer from tail bleeds were measured weekly in the morning. Mice were also bled for insulin measurements on a weekly basis. An oral glucose tolerance test (OGTT) was performed on day 23. For the OGTT, mice were fasted for 4 hours, and baseline glucose was measured. Subsequently, 2 g/kg glucose was administered to the mice by oral gavage, and glucose was measured again after 30, 60, 90, and 120 minutes. On day 26, 6 hour fasted blood glucose was measured, and mice were bled for insulin assessment as described above. At the end of the study (day 28/29), mice were sacrificed, and tissue (skeletal muscle, adipose, pancreas, heart, spleen, liver) was collected for weight and further analysis. Mouse plasma was used to measure circulating levels of ALT, AST, non-esterified fatty acids (NEFAs), triglycerides (trigs), and cholesterol (chol) on the Advia Chemistry Analyzer from Siemens. One lobe of the liver was fresh frozen to allow for triglyceride extraction and quantification using standard protocols. Another lobe of the liver and the pancreas were fixed in 10% formalin, embedded in paraffin, and sectioned for liver histology. H&E, as well as smooth muscle actin (SMA), staining was performed, and slides were subjected to quantification using Halo software. Paraffin sections of the pancreas were stained for insulin and glucagon to determine beta cell and alpha cell mass, respectively, using Halo software.

[4] = test system: diet-induced obesity (DIO) mouse model; experiment: Oral glucose tolerance test (OGTT) and fasted blood glucose, DIO mice
Description: as §1
as §2, with “Subsequently, 2 g/kg glucose was administered to the mice by oral gavage, and glucose was measured again after 30, 60, 90, and 120 minutes.” left out

[5] = test system: diet-induced obesity (DIO) mouse model; experiment: Fed blood glucose, insulin and glucagon, DIO mice
Description: as §1, §2

[6] = test system: diet-induced obesity (DIO) mouse model; experiment: Liver triglyceride extraction and liver histology (H&E, SMA staining), DIO mice; settings: end of study
Description: as §1, §2

[7] = test system: diet-induced obesity (DIO) mouse model; experiment: Plasma ALT, AST, NEFA, triglycerides, cholesterol (Advia Chemistry Analyzer), DIO mice; settings: end of study, first value of group (mean)
Description: as §1
as §2, with “Another lobe of the liver and the pancreas were fixed in 10% formalin, embedded in paraffin, and sectioned for liver histology.” left out, “Paraffin sections of the pancreas were stained for insulin and glucagon to determine beta cell and alpha cell mass, respectively, using Halo software.” left out

**Q.** For Semaglutide, which “Final organ weights, Gonadal Fat, Mean” value [1] is on record?
**A.** The value was −10.56.

**Q.** What about the “Final organ weights, Subq Fat, Mean” value [1] of the same substance?
**A.** The value was −22.58.

**Q.** And the “lean mass (in words)” value [2]?
**A.** The value was “lean mass loss”.

**Q.** And the “Body weight changes over time, Mean” value ([3]; Day 5)?
**A.** Its value is −11.33.

**Q.** And the “Body weight changes over time, Mean” value ([3]; Day 6)?
**A.** The value was −12.46.

**Q.** What about the “Body weight changes over time, Mean” value ([3]; Day 9) of the same substance?
**A.** The value was −15.25.

**Q.** And the “Body weight changes over time, Mean” value ([3]; Day 12)?
**A.** Its value is −16.20.

**Q.** What about the “Body weight changes over time, Mean” value ([3]; Day 13) of the same substance?
**A.** Its value is −15.72.

**Q.** What about the “Body weight changes over time, Mean” value ([3]; Day 14) of the same substance?
**A.** The value was −17.49.

**Q.** What about the “Body weight changes over time, Mean” value ([3]; Day 19) of the same substance?
**A.** Its value is −15.74.

**Q.** And the “Body weight changes over time, Mean” value ([3]; Day 23)?
**A.** The value was −13.16.

**Q.** What about the “Body weight changes over time, Mean” value ([3]; Day 26) of the same substance?
**A.** Its value is −12.53.

**Q.** And the “Body weight changes over time, Mean” value ([3]; Day −6 (before treatment))?
**A.** The value was 0.

**Q.** And the “Fat mass changes over time, Mean” value ([3]; Day 5)?
**A.** Its value is −23.75.

**Q.** What about the “Lean mass changes over time, Mean” value ([3]; Day 5) of the same substance?
**A.** Its value is −3.50.

**Q.** And the “Fat mass changes over time, Mean” value ([3]; Day 12)?
**A.** Its value is −33.78.

**Q.** And the “Lean mass changes over time, Mean” value ([3]; Day 12)?
**A.** Its value is −4.09.

**Q.** What about the “Fat mass changes over time, Mean” value ([3]; Day 19) of the same substance?
**A.** The value was −34.24.

**Q.** What about the “Lean mass changes over time, Mean” value ([3]; Day 19) of the same substance?
**A.** The value was −2.43.

**Q.** And the “Lean mass changes over time, Mean” value ([3]; Day 25)?
**A.** Its value is −1.93.

**Q.** And the “Fat mass changes over time, Mean” value ([3]; Day 26)?
**A.** The value was −29.52.

**Q.** What about the “Fat mass changes over time, Mean” value ([3]; Day −6 (before treatment)) of the same substance?
**A.** The value was 0.

**Q.** What about the “Lean mass changes over time, Mean” value ([3]; Day −6 (before treatment)) of the same substance?
**A.** Its value is 0.

**Q.** And the “decrease in body weight as compared with the control group” value ([3]; vs control group)?
**A.** Its value is “approximately 14%”.

**Q.** What about the “decrease in lean mass as compared with the control group” value ([3]; vs control group) of the same substance?
**A.** The value was 3-4%.

**Q.** And the “loss in fat mass compared to the control group” value ([3]; vs control group (Group 1))?
**A.** The value was “approximately 18%”.

**Q.** What about the “Area under the curve of OGTT at day 23, Mean” value ([4]; 2 g/kg glucose oral gavage, day 23) of the same substance?
**A.** Its value is 27698.

**Q.** What about the “4 hrs fasted glucose levels at day 23, Mean” value ([4]; 4 hrs fasted, day 23, in mg/dL (unit assumed)) of the same substance?
**A.** Its value is 192.1.

**Q.** What about the “6 hrs fasted glucose levels at day 26, Mean” value ([4]; 6 hrs fasted, day 26, in mg/dL (unit assumed)) of the same substance?
**A.** The value was 172.6.

**Q.** And the “oGTT measurement on day 23 (glucose), Mean” value (“oGTT measurement” below) ([4]; Time 0 min)?
**A.** Its value is 192.125.

**Q.** What about the “oGTT measurement” value ([4]; Time 15 min) of the same substance?
**A.** The value was 433.5.

**Q.** What about the “oGTT measurement” value ([4]; Time 30 min) of the same substance?
**A.** Its value is 310.75.

**Q.** And the “oGTT measurement” value ([4]; Time 60 min)?
**A.** Its value is 230.75.

**Q.** What about the “fed insulin over time, Mean” value ([5]; Day 6) of the same substance?
**A.** The value was 6.2175.

**Q.** And the “fed insulin over time, Mean” value ([5]; Day 13)?
**A.** The value was 2.296.

**Q.** And the “Fed glucose over time, Mean” value ([5]; Day 20, in mg/dL (unit assumed))?
**A.** The value was 259.5.

**Q.** What about the “fed insulin over time, Mean” value ([5]; Day −5 (before treatment)) of the same substance?
**A.** Its value is 16.285.

**Q.** What about the “Fed glucagon levels at day 20, Mean” value ([5]; day 20) of the same substance?
**A.** The value was 4.106.

**Q.** And the “Liver fat area, Mean” value ([6]; H&E liver histology)?
**A.** Its value is 28.34.

**Q.** And the “SMA positive area (% of fat-free area), Mean” value ([6]; liver SMA staining)?
**A.** The value was 6.942 % of fat-free area.

**Q.** And the “SMA positive area (normalized to nuclei amount), Mean” value ([6]; liver SMA staining)?
**A.** The value was 14.32.

**Q.** What about the “Liver triglycerides, Mean” value ([6]; liver tissue) of the same substance?
**A.** The value was 153.6.

**Q.** And the “Plasma measurements - Liver panel, AST” value [7]?
**A.** The value was 103.625.

**Q.** What about the “Plasma measurements - Liver panel, Chol” value [7] of the same substance?
**A.** The value was 193.75.

**Q.** What about the “Plasma measurements - Liver panel, NEFA” value [7] of the same substance?
**A.** Its value is 0.5837.
